Results from ChEMBL document CHEMBL5727603 (2020).

Target: Rho-associated protein kinase 2 (Homo sapiens, UniProt O75116)
Experiment: Binding Assay: ROCK-II inhibitory activity can be measured using the ROCK-II Assay Kit (Molecular Devices, inc.; Sunnyvale, Calif.).

Sequence of Rho-associated protein kinase 2 (O75116 whole entry): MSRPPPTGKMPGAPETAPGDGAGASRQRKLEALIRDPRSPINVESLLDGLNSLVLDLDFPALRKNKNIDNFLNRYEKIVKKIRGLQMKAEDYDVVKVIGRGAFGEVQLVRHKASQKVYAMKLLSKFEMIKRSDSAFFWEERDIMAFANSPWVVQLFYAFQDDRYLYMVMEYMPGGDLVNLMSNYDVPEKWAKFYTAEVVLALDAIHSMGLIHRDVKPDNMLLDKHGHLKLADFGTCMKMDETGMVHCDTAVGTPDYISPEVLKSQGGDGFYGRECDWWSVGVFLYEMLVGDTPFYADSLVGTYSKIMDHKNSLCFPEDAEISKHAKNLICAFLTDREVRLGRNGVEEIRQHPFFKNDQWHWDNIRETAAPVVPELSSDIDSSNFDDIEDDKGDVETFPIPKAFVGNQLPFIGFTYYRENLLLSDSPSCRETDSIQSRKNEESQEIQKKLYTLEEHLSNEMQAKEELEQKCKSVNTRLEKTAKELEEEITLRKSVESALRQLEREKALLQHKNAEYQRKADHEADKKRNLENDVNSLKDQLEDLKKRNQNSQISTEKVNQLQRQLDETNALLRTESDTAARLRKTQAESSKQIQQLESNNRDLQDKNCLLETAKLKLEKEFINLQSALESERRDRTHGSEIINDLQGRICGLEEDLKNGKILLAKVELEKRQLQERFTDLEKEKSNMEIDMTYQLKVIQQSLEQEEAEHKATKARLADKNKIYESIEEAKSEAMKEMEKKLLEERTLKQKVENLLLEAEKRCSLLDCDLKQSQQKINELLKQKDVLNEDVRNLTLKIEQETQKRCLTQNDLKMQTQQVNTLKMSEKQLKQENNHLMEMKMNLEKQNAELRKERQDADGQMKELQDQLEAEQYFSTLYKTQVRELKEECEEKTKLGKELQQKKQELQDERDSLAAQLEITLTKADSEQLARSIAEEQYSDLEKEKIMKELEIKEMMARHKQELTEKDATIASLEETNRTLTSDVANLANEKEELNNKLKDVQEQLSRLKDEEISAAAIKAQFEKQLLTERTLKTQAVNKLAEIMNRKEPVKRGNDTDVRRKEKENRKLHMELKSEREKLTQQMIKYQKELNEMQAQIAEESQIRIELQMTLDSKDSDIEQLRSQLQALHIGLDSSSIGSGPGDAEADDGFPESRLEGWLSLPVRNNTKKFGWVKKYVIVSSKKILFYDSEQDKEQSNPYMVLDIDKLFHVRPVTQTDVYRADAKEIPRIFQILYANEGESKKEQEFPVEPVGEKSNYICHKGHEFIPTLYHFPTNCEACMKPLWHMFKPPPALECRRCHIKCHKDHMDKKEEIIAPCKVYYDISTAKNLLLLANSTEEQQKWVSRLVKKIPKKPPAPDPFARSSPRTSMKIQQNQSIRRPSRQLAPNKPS

O=C(Nc1ccccc1-c1nc(Nc2ccc3[nH]ncc3c2)c2ccccc2n1)c1ccccn1
IC50: 8.3 µM
